Source: ChEMBL document CHEMBL3526115, “Differences in the pharmacokinetics of 4-amino-3-chlorophenyl hydrogen sulfate, a metabolite of resatorvid, in rats and dogs” (Drug Metab Dispos, 2012)

Experiments:
[1] = Elimination half life in iv dosed rat plasma; assay type: ADME, organism-based; details: read-out: beta t1/2 (converted)
[2] = Elimination half life in iv dosed dog plasma; assay type: ADME, organism-based, Canis lupus familiaris; details: read-out: beta t1/2 (converted)
[3] = Half life in dog plasma at 5 mg/kg; assay type: ADME, organism-based, Canis lupus familiaris; parameters: dose 5 mg/kg
[4] = Half life in human plasma at 5 mg/kg; assay type: ADME, organism-based; parameters: dose 5 mg/kg
[5] = Half life in rat plasma at 5 mg/kg; assay type: ADME, organism-based; parameters: dose 5 mg/kg
[6] = Dissociation constant, pKa of the compound; assay type: physicochemical

SMILES | half-life [1] [h] | half-life [2] [h] | half-life [3] [h] | half-life [4] [h] | half-life [5] [h] | pKa [6]
CCOC(=O)C1=CCCC[C@H]1S(=O)(=O)N[14c]1[14cH][14cH][14c](F)[14cH][14c]1Cl | 5.6 | 158 |  |  |  | 
Cc1cc(Cl)ccc1OCC(=O)O [METAXON] |  |  | 63 | 11 | 6 | 
O=C(O)COc1ccc(Cl)cc1Cl [2,4-DICHLOROPHENOXYACETIC ACID] |  |  | 92 | 12 | < 1 | 
Nc1ccc(OS(=O)(=O)O)cc1Cl |  |  |  |  |  | 2.4
